Assay [1] has as its target T1, recombinant human HSP90beta (Homo sapiens, UniProt P08238).
T1 construct: purchased Dr. S. Rüdiger, Cellular Protein Chemistry, Utrecht University
Nature of the assay: Competition ELISA: HSP90 binding under influence of crossbeta binding compounds and geldanamycin. The conditions noted are these: 20 μg/ml HSP90, geldanamycin 10 μM; for Binding of HSP90 to coated Aβ25-35 under influence of compound: sRAGE 79 μg/ml, HSA 10 μM. The protocol:
Binding of chaperones to immobilized (misfolded) protein ligands was determined using an enzyme linked immuno sorbent assay (ELISA) approach. For this purpose 50 μl/well of potential ligands at indicated concentrations or coat buffer only for control and background measurement purposes, were coated overnight at 4° C. or coated for 1 h at room temperature, with motion, in 50 mM NaHCO3 pH 9.6 (coat buffer). In general, ligands were coated at 5 μg/ml, unless stated otherwise. […] Native haemoglobin (Sigma-Aldrich, H7379), albumin, IgIV Gammagard and ovalbumin controls were prepared from lyophilized stocks. The controls were prepared by dissolving lyophilized proteins at 1 mg/ml in PBS upon resuspending by pipetting, followed by a 30 minutes period at the roller device, at room temperature. The protein solutions were centrifuged for 10 minutes at 16,000*g and diluted in coat buffer. […] Plates were washed three times and incubated in triplicate with indicated chaperone dilution series, at 50 μl/well, for 1 h at room temperature, with constant motion. For HSP90, 5 mM DTT is incorporated in the binding buffer (PBS/0.1% Tween20) to avoid unwanted disulfide bond formation of the HSP90. […] After four wash cycles, secondary antibodies were added to the wells when required, 50 μl/well, for 45′ at room temperature, with motion. RAMPO and SWARPO were used at 3000 times dilution. […] In a second experiment with more immobilized misfolded proteins and controls, the detection of bound HSP90 with the mix of two anti-HSP90 antibodies was achieved by mixing 1:1500 SWARPO with 1:3000 RAMPO. After 5 washes with wash buffer followed by two washes with PBS, binding of antibodies was assessed. […] The reaction was stopped after 5 minutes with 1% H2SO4 in H2O. Plates were read at 450 nm. Triplicates were averaged and standard deviations calculated. Background signals obtained with buffer-coated wells were subtracted (binding of primary antibody to empty wells), as well as background signals obtained with ligand-coated wells in which the chaperones were omitted (binding of primary and secondary antibody to coated ligands). Subsequently, sub-optimal concentrations of chaperones for binding to misfolded protein ligands are determined, and these concentrations are used for inhibition studies.

Assay [2] deals with HUVECs. Description: Adhesion of HUVECs to immobilized misfolded proteins under influence of BiP (LDH read-out). The format is cell-based, human. The conditions noted are these: for Number of adhered HUVECs after preincubation of coated protein with BiP: BiP approximately 200 μg/ml. The protocol:
HUVECs are primary endothelial cells (ECs), isolated from umbilical cords using 0.1% collagenase (Sigma, C0130, 100 mg, dissolved in 100 ml M199 medium supplemented with 10% FCS (Gibco 10106-169) and Penicillin-Streptomycin (P/S, Gibco, 15140-122)), according to widespread used standard procedures known to a person skilled in the art. HUVECs have the typical features of ECs, e.g. cobblestone morphology and von Willebrand factor storage in Weibel-Palade bodies. HUVECs can regularly be cultured up to passage 5; beyond passage 5 HUVECs loose typical EC markers. The isolation is described here in brief. The umbilical cord is washed for less than 3 minutes in ethanol and subsequently with PBS. The vein is connected to canules and flushed with 10 ml PBS, followed by loading with the 0.1% collagenase solution. After a 15 minute-incubation at 37° C., the detached endothelial cell suspension is recovered by flushing the vein with 10 ml medium which is subsequently added to the collagenase solution. The EC suspension is centrifuged for 5 minutes at room temperature, at low g-force. Supernatant is discarded and the cell pellet is resuspended in 5 ml ‘rich medium’ (EGM-2; Endothelial basal medium (EBM-2, Cambrex, CC-3156) and Singlequots containing supplements for endothelial cells (Cambrex, CC-4176)). Cells (passage 0, P0) are seeded in a culture flask coated with 0.5% gelatin (Sigma, G1393). To facilitate the adhesion of the endothelial cells, human fibronectin is added to the cell culture at a final concentration of 2 μg/ml. EC's are cultured at 37° C., at 5% CO2. The cell culture medium is refreshed every 2-3 days up to when the cells grow to confluency. Then, with the addition of trypsin-EDTA, the cells are detached from the flask, centrifuged at low g-force, resuspended in rich medium and seeded in larger 0.5% gelatin-precoated cell culture flasks.
In 96-wells plates (Immulon high-binding plates, Thermo Labsystems 3355) proteins, i.e. BSA-AGE, control BSA, IgIV Gammagard, crossbeta dIgIV-86 at 5 μg/ml, 10 μg/ml misfolded oxLDL, or gelatin (Sigma G1393, 2% solution in H2O or PBS, positive control for adhesion to ECs) were coated using 100 μl solutions, in six wells for each condition. Following incubation for 2 hours at 37° C. the solutions were discarded and the wells blocked for 1 hour at 37° C. with 100 μl/well of 1% polyvinyl-pyrrolidone (PVP, Sigma P5288) in PBS, filter (0.22 μm) sterilized. […] Subsequently, the block solution was discarded. Next, the plates were incubated with 40 μl RPMI 1640 medium (Gibco, 52400) and 10 μl of the potential inhibitor, i.e. recombinant human BiP at approximately 200 μg/ml final concentration. HUVECs were obtained by trypsinization. […] The absorbance at 490 nm was measured on a Versamax microplate reader at various time points.

T1 sequence (P08238 whole entry): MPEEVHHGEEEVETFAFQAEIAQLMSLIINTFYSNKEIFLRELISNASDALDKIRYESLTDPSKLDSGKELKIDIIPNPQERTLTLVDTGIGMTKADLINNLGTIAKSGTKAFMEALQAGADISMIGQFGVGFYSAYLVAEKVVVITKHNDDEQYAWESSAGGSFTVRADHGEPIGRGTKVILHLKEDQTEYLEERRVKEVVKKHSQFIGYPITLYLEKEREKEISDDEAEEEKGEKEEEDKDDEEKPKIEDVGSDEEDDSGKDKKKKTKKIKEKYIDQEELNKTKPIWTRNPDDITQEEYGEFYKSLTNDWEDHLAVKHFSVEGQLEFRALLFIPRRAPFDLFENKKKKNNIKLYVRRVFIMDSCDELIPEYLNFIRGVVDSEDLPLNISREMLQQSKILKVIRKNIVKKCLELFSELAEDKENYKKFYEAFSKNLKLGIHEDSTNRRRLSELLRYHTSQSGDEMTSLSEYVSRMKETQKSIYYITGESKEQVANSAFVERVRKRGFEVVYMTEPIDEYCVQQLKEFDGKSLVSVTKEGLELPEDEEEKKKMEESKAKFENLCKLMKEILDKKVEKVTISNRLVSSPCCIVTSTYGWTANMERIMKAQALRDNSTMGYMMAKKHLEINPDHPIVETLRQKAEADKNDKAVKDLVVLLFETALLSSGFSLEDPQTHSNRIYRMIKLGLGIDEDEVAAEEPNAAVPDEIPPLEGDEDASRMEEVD

Consider `Nc1c(/N=N/c2ccc(-c3ccc(/N=N/c4cc(S(=O)(=O)O)c5ccccc5c4N)cc3)cc2)cc(S(=O)(=O)O)c2ccccc12` [Congo red], for which, in assay [1], the “Binding of HSP90 to coated HbAGE under influence of compound” value is listed as “inhibited” and the “Binding of HSP90 to coated Aβ25-35 under influence of compound” value is “stimulatory activity”.

As for `Cc1ccc2c(c1)sc(-c1ccc(N(C)C)cc1)[n+]2C.[Cl-]` [ThT, Thioflavin T], in assay [1], the “Binding of HSP90 to coated HbAGE under influence of compound” value is reported as “had no influence” and the “Binding of HSP90 to coated Aβ25-35 under influence of compound” value is “stimulatory activity”.

Regarding BSA-AGE, the “Number of adhered HUVECs after preincubation of coated protein with BiP” value in assay [2] is on record as “hardly increase”. Moreover, the “Adhesion of HUVECs to coated protein” value in assay [2] (without BiP, LDH activity after lysis) is reported as “to a similar extent as to gelatin”.

As for “native BSA: non-modified bovine serum albumin control”, the “Number of adhered HUVECs after preincubation of coated protein with BiP” value in assay [2] was “hardly increase”.

Source of the values: patent publication US20100015126A1, “Methods of Binding of Cross-Beta Structures By Chaperones” (priority 2006, published 2010).
